Test results as given in US7981903B2, “2-[2-{phenylamino}-1H-pyrrolo[2,3-D]pyrimidin-4-yl)amino] benzamide derivatives as IGF-1R inhibitors for the treatment of cancer” (GlaxoSmithKline LLC, priority 2007, dated 2011).

Assays:
[1] = target: T1, human IR (hIR) (Homo sapiens, UniProt P06213); assay: TR-FRET kinase assay of purified hIR; assay type: biochemical; conditions: activated hIR 0.5 nM, 10 μM ATP, values given as pIC50 category
T1 construct: containing amino acid residues 979-1382 of human IR; made in house; host or cells: Sf9 cells (baculovirus), same process as hIGF1R

[2] = target: T2, human IGF1R (hIGF1R) (Homo sapiens, UniProt P08069); assay: TR-FRET kinase assay of purified hIGF1R; assay type: biochemical; conditions: activated hIGF1R 0.5 nM, 10 μM ATP, values given as pIC50 category, read-out: IGF-1R pIC50 (converted)
T2 construct: containing amino acid residues 957-1367 of human IGF1R; made in house; host or cells: Sf9 cells (baculovirus)

[3] = target: T3, NIH-3T3 cells overexpressing human IGF-1R (Homo sapiens, UniProt P08069); assay: IGF-1R cellular autophosphorylation (DELFIA); assay type: cell-based
T3 construct: expressed in transfected cells; host or cells: NIH-3T3 (mouse fibroblasts)
Procedure, shortened: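 Receptor autophosphorylation measured by DELFIA, capturing IGF-1R or IRβ and detecting with europium anti-pTyr, reported as percent of IGF-1- or insulin-stimulated signal. Compounds (30 uM to 1.5 nM) added 2 h before ligand, then 15 min stimulation (IGF-1 30 ng/ml or insulin 3 ug/ml).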

T3 sequence (P08069 31-1367): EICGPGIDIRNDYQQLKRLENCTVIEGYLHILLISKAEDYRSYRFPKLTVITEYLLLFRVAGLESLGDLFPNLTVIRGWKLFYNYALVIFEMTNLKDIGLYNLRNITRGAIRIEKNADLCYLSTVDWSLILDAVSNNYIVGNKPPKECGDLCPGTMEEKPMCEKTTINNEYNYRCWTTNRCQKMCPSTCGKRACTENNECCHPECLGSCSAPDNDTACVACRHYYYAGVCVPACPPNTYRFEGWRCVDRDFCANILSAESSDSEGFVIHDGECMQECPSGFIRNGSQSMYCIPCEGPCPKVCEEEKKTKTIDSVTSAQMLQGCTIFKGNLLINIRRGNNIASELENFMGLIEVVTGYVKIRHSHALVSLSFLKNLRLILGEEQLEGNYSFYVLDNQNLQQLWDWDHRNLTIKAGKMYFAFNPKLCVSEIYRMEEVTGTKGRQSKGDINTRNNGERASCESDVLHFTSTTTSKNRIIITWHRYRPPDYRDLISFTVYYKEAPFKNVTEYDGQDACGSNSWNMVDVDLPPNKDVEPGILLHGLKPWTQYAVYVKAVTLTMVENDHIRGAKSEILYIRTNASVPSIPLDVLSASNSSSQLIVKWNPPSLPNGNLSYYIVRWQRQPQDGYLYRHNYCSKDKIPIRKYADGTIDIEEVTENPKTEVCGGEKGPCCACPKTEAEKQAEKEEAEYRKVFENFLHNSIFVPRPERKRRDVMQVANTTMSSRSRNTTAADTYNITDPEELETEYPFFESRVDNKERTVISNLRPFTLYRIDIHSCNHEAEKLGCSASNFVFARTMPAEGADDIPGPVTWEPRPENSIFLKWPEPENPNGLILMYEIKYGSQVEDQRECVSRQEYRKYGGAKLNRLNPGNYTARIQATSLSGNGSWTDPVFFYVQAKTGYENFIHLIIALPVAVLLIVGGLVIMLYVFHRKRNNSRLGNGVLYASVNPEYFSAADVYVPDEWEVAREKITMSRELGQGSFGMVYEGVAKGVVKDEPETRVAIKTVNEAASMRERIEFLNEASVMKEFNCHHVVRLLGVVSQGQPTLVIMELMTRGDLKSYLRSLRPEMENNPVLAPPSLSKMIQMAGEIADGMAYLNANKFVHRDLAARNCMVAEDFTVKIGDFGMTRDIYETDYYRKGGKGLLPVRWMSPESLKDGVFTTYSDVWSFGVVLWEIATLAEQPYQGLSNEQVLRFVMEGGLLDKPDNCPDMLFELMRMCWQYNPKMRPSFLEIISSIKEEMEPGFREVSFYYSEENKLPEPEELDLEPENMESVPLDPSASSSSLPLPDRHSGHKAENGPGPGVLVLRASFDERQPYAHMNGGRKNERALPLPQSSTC
T1 sequence (P06213 979-1382): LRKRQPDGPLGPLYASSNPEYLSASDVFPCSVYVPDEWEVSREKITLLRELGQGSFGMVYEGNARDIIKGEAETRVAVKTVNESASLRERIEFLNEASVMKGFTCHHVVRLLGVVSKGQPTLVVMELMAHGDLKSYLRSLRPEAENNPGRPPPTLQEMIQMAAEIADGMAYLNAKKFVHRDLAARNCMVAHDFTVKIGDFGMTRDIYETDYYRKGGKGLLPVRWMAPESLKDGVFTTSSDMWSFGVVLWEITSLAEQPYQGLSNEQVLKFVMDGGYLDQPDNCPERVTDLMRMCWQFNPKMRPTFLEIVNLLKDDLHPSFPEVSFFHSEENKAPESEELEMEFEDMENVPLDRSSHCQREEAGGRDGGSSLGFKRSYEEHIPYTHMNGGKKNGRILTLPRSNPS
T2 sequence (P08069 957-1367): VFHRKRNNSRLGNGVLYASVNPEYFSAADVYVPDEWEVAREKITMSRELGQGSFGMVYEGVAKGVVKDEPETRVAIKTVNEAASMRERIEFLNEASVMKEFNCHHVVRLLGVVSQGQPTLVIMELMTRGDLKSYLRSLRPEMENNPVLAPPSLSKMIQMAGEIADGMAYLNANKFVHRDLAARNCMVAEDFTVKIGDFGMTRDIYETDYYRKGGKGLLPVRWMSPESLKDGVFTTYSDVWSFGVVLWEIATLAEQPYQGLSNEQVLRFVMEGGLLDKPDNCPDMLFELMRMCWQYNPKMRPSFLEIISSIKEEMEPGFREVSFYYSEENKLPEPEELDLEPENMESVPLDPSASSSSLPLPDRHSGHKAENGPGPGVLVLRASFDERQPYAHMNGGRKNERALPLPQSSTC

Row | SMILES | IC50 [1] [nM] | IC50 [2] [nM] | IC50 [3] [nM]
1 | COc1cc2c(cc1Nc1nc(Nc3cccc(F)c3C(N)=O)c3cc[nH]c3n1)NCCC2 [Example 211, 2-fluoro-6-[(2-{[6-(methyloxy)-1,2,3,4-tetrahydro-7-quinolinyl]amino}-1H-pyrrolo[2,3-d]pyrimidin-4-yl)amino]benzamide] | 5.01 to 158 | 5.01 to 200 | > 500
2 | CN(C)CC(=O)Nc1ccc(OC(F)(F)F)c(Nc2nc(Nc3ccccc3C(N)=O)c3cc[nH]c3n2)c1 [Example 16, 2-{[2-({5-[(N,N-dimethylglycyl)amino]-2-[(trifluoromethyl)oxy]phenyl}amino)-1H-pyrrolo[2,3-d]pyrimidin-4-yl]amino}benzamide] | 0.251 to 1 | 0.251 to 1 | 100 to 500
3 | COc1cc2c(cc1Nc1nc(Nc3cc(Cl)cc(F)c3C(N)=O)c3cc[nH]c3n1)N(C(=O)CN1CCCC1)CC2 [Example 175, 4-chloro-2-fluoro-6-[(2-{[5-(methyloxy)-1-(1-pyrrolidinylacetyl)-2,3-dihydro-1H-indol-6-yl]amino}-1H-pyrrolo[2,3-d]pyrimidin-4-yl)amino]benzamide] | 0.251 to 1 | 0.251 to 1 | < 100
4 | CCN(C)CC(=O)N1CCc2cc(OC)c(Nc3nc(Nc4cccc(F)c4C(=O)NC)c4cc[nH]c4n3)cc21 [Example 165, 2-[(2-{[1-(N-ethyl-N-methylglycyl)-5-(methyloxy)-2,3-dihydro-1H-indol-6-yl]amino}-1H-pyrrolo[2,3-d]pyrimidin-4-yl)amino]-6-fluoro-N-methylbenzamide] | 5.01 to 158 | 5.01 to 200 | 100 to 500
5 | CCNC(=O)c1c(F)cc(F)cc1Nc1nc(Nc2cc3c(cc2OC)CCCN3C(=O)CN(C)C)nc2[nH]ccc12 [Example 180, 2-[(2-{[1-(N,N-dimethylglycyl)-6-(methyloxy)-1,2,3,4-tetrahydro-7-quinolinyl]amino}-1H-pyrrolo[2,3-d]pyrimidin-4-yl)amino]-N-ethyl-4,6-difluorobenzamide] | 1.26 to 3.98 | 0.251 to 1 | < 100
6 | COc1cc2c(cc1Nc1nc(Nc3cccc(F)c3C(N)=O)c3cc[nH]c3n1)N(C(=O)CCN1CCOCC1)CC2 [Example 187, 2-fluoro-6-{[2-({5-(methyloxy)-1-[3-(4-morpholinyl)propanoyl]-2,3-dihydro-1H-indol-6-yl}amino)-1H-pyrrolo[2,3-d]pyrimidin-4-yl]amino}benzamide] | 5.01 to 158 | 5.01 to 200 | 100 to 500
7 | CNC(=O)c1c(F)cccc1Nc1nc(Nc2cc(N(C)C(=O)CN(C)C)ccc2OC)nc2[nH]ccc12 [Example 242, 2-[(2-{[5-[(N,N-dimethylglycyl)(methyl)amino]-2-(methyloxy)phenyl]amino}-1H-pyrrolo[2,3-d]pyrimidin-4-yl)amino]-6-fluoro-N-methylbenzamide] | 5.01 to 158 | 5.01 to 200 | 100 to 500
8 | CNC(=O)c1c(F)cc(F)cc1Nc1nc(Nc2cc3c(cc2OC)CCCN3C(=O)CN(C)C)nc2[nH]ccc12 [Example 179, 2-[(2-{[1-(N,N-dimethylglycyl)-6-(methyloxy)-1,2,3,4-tetrahydro-7-quinolinyl]amino}-1H-pyrrolo[2,3-d]pyrimidin-4-yl)amino]-4,6-difluoro-N-methylbenzamide] | 0.251 to 1 | 0.251 to 1 | < 100
9 | CCCN1CCC(c2ccc(Nc3nc(Nc4cc(F)cc(F)c4C(N)=O)c4cc[nH]c4n3)c(OC)c2)CC1 [Example 92, 2,4-difluoro-6-[(2-{[2-(methyloxy)-4-(1-propyl-4-piperidinyl)phenyl]amino}-1H-pyrrolo[2,3-d]pyrimidin-4-yl)amino]benzamide] | 0.251 to 1 | 0.251 to 1 | < 100
10 | COc1cc2c(cc1Nc1nc(Nc3cc(Cl)cc(F)c3C(N)=O)c3cc[nH]c3n1)N(C(=O)CN(C)C)CC2 [Example 119, 4-chloro-2-[(2-{[1-(N,N-dimethylglycyl)-5-(methyloxy)-2,3-dihydro-1H-indol-6-yl]amino}-1H-pyrrolo[2,3-d]pyrimidin-4-yl)amino]-6-fluorobenzamide] | 0.251 to 1 | 0.251 to 1 | < 100
11 | CNC(=O)c1c(F)cccc1Nc1nc(Nc2cc3c(cc2OC)CCCN3C(=O)CCN(C)C)nc2[nH]ccc12 [Example 213, 2-[(2-{[1-(N,N-dimethyl-β-alanyl)-6-(methyloxy)-1,2,3,4-tetrahydro-7-quinolinyl]amino}-1H-pyrrolo[2,3-d]pyrimidin-4-yl)amino]-6-fluoro-N-methylbenzamide] | 5.01 to 158 | 5.01 to 200 | > 500
